Here are results for 15 compounds from ChEMBL document CHEMBL6083193, “Advancing drug discovery: Thiadiazole derivatives as multifaceted agents in medicinal chemistry and pharmacology” (Bioorg Med Chem, 2024).

Each structure is given as a SMILES string.

Test [1] deals with A549. Briefly: Cytotoxicity against human A549 cells assessed as reduction in cell viability incubated for 24 hrs by MTT assay. It is filed as functional, cell-based. The note with it: A549, 24 h.
Test [2] concerns A549. Briefly: Cytotoxicity against human A549 cells assessed as reduction in cell growth. It is filed as functional, cell-based.
In test [3] the test system is A549. In words: Cytotoxicity against human A549 cells by MTT assay. It is filed as functional, cell-based. (In general: Formazan colour is commonly taken as a measure of viable cells.)
Test [4] relates to MCF7. In words: Cytotoxicity against human MCF7 cells assessed as reduction in cell viability incubated for 24 hrs by MTT assay. It is filed as functional, cell-based. The note with it: MCF7, 24 h.
The subject of test [5] is A2780. Briefly: Cytotoxicity against human A2780 cells assessed as reduction in cell viability incubated for 72 hrs by CCK-8 assay. The class given is functional, cell-based. Conditions: A2780, 72 h.
In test [6] the test system is A2780. In words: Induction of apoptosis in human A2780 cells assessed as caspase3/7 activation. The class given is functional, cell-based.
For test [7], the system named is A2780. Briefly: Cytotoxicity against human A2780 cells assessed as increase in LDH activity. The class given is functional, cell-based.
Test [8] relates to Trypanosoma brucei. Briefly: Antiparasitic activity against blood stream form Trypanosoma brucei assessed as parasitic growth inhibition at 10 uM by resazurin dye based fluorescence analysis relative to control. The class given is functional. Also noted: scale not given: the % may be the effect or the level left. A general note: Resazurin is reduced to fluorescent resorufin, in cell work by metabolically active cells.

The subject of test [9] is MCF7. In words: Anticancer activity against human MCF7 cells by MTT assay. It is filed as functional, cell-based.
Test [10] can be described thus: Inhibition of alpha amylase (unknown origin) using starch as substrate pre-incubated for 30 mins followed by substrate addition and measured after 30 mins by absorbance based analysis. Also noted: species or system Homo sapiens.
In test [11] the target is Epidermal growth factor receptor (Homo sapiens, UniProt P00533). Briefly: Inhibition of EGFR (unknown origin).
Sequence of Epidermal growth factor receptor (P00533 whole entry): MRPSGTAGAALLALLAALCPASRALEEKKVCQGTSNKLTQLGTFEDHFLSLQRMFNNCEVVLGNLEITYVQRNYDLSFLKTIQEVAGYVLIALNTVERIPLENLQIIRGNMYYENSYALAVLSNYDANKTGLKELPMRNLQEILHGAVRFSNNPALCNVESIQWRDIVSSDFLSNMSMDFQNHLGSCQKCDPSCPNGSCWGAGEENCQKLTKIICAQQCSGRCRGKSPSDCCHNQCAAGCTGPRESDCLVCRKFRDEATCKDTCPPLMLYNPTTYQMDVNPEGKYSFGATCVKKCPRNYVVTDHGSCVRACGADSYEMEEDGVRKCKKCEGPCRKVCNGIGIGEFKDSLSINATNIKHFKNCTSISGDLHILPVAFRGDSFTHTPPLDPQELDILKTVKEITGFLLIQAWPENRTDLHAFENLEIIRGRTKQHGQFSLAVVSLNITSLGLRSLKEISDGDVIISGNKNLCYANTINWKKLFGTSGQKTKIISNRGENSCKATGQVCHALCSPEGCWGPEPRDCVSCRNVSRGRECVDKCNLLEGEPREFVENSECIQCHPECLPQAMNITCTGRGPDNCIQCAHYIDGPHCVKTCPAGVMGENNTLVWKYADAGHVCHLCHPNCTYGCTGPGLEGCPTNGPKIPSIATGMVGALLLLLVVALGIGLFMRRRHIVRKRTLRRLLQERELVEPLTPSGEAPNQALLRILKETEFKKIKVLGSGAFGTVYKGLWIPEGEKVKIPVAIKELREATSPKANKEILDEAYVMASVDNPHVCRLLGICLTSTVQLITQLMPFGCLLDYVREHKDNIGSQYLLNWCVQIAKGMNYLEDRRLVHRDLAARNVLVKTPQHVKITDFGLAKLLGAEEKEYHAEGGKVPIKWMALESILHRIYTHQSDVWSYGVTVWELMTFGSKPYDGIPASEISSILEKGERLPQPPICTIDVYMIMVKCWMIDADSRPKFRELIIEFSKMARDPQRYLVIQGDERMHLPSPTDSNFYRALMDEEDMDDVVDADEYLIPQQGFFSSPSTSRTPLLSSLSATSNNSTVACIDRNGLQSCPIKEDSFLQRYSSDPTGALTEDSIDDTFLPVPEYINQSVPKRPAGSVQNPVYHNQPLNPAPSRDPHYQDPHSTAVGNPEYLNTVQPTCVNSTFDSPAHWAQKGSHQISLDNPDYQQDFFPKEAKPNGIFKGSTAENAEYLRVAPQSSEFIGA
Test [12] has as its system COLO 205. Briefly: Cytotoxicity against human COLO 205 cells assessed as reduction in cell viability by MTT assay. It is filed as functional, cell-based.
Test [13] relates to A549. In words: Cytotoxicity against human A549 cells assessed as reduction in cell viability by MTT assay. It is filed as functional, cell-based.
In test [14] the test system is A2780. In words: Anticancer activity against human A2780 cells by MTT assay. The class given is functional, cell-based.
Test [15] deals with COLO 205. Briefly: Anticancer activity against human COLO 205 cells by MTT assay. It is filed as functional, cell-based.
The test system of test [16] is A549. Briefly: Anticancer activity against human A549 cells by MTT assay. It is filed as functional, cell-based.
Test [17] concerns MCF7. In words: Cytotoxicity against human MCF7 cells assessed as reduction in cell viability by MTT assay. It is filed as functional, cell-based.
In test [18] the test system is A2780. In words: Cytotoxicity against human A2780 cells assessed as reduction in cell viability by MTT assay. It is filed as functional, cell-based.

The term IC50 denotes the concentration that gives 50% inhibition. Take `O=C(CSc1nnc(Nc2ccc(Cl)cc2)s1)N1N=C(c2ccccc2)CC1c1ccc([N+](=O)[O-])cc1` (stereo not given): the half-inhibitory concentration (IC50) in [1] worked out at 8490 nM; in test [2], 10000 nM; in [3], 11900 nM; in [4] it was 67200 nM.

As for `Nc1nsc(=S)n1[C@H]1CC(=O)[C@@H]2OC[C@H]1O2`, the IC50 in test [5] turned out to be 50200 nM; in test [6], 15000 nM; in [7], 23800 nM.

For the compound `Cc1nc[nH]c1-c1nnc(Nc2ccccc2F)s1`, the Activity in [8] was 64.81%.

With `C=CCNc1nnc(SCC(=O)N2N=C(c3ccccc3)CC2c2ccc([N+](=O)[O-])cc2)s1` (stereo not given), the figures for the IC50 in test [1], in test [2] and in [4] were 5180 nM, 10000 nM and 35700 nM, respectively.

Take `O=C1C[C@H](n2ccsc2=S)[C@H]2CO[C@@H]1O2`: the IC50 in test [5] is 47800 nM; in test [9], 110 nM; in [6] it was 1000 nM; in [7], 62000 nM.

Compound `O=C(NC1=NN2C(=O)/C(=C/C3CCCO3)N=C2S1)c1cccs1` (stereo not given) registered an IC50 in test [10] of 36100 nM.

Turning to `O=C(NC1=NN2C(=O)CN=C2S1)c1cccs1`, the IC50 in test [10] is 36100 nM.

Take `CNc1nnc(CCCSc2nnc(SCCCc3nnc(NC)s3)s2)s1`: in [8], the Activity was 65.3%.

For `O=C(CSc1nnc(Nc2ccccc2)s1)N1N=C(c2ccccc2)CC1c1ccc([N+](=O)[O-])cc1` (stereo not given), the 50% inhibitory concentration (IC50) in [11] was found to be 2 nM; in [1], 1540 nM; in test [2] it was 10000 nM; in test [3], 48300 nM; in test [4] it was 15900 nM.

`Cc1ccc(NC(=O)c2ccc(-c3nsc(-c4csc(-c5ccncc5)n4)n3)cc2)cc1`: the IC50 turned out to be 120 nM in test [12]; 110 nM in test [13]; 110 nM in test [14]; 110 nM in [15]; 110 nM in test [9]; 110 nM in [16]. For the same compound, the IC50 in [17] is 340 nM; in test [18], 140 nM.

Turning to `O=C(CCl)Nc1nnc(NC(=O)c2cccs2)s1`, in test [10], the IC50 turned out to be 36100 nM.

For the compound `COc1ccc(NC(=O)c2ccc(-c3nsc(-c4csc(-c5ccncc5)n4)n3)cc2)cc1`, the IC50 in [12] came to 120 nM; in test [13] it was 110 nM; in [14], 110 nM; in test [15], 110 nM; in test [9], 110 nM; in test [16] it was 110 nM. Also, the figures for the IC50 in [17] and in [18] were 340 nM and 140 nM, respectively.

With `c1ccc(Nc2nnc(CCCSc3nnc(CCCSc4nnc(Nc5ccccc5)s4)s3)s2)cc1`, the Activity in test [8] was 82.6%.

Consider `COc1cc(NC(=O)c2ccc(-c3nsc(-c4csc(-c5ccncc5)n4)n3)cc2)cc(OC)c1`, for which the IC50 stood at 120 nM in test [12]; 110 nM in test [13]; 110 nM in test [14]; 110 nM in test [15]; 110 nM in [9]; 110 nM in [16]. Further, the IC50 in test [17] worked out at 340 nM; in test [18], 140 nM.

`N=c1cc(N)nc2sc(NC(=O)c3cccs3)nn12` registered an IC50 in test [10] of 36100 nM.
